Test results reported in PMC6383929, “Design, antimicrobial activity and mechanism of action of Arg-rich ultra-short cationic lipopeptides” (PLoS ONE, 2019).
In brackets after ≈: the same amount, converted by molar mass. Where a SMILES comes first, the peptide text is derived from it. The star is where a group is joined. Lauroyl = CCCCCCCCCCCC(=O)*

Assays:
[1] = RP-HPLC retention time (hydrophobicity); assay type: physicochemical; details: stated to reliably reflect the hydrophobicity in aqueous solution, assessed and provided by GenScript
Protocol: GenScript (Piscataway, NJ, USA) carried out the custom synthesis of USCLs by using high efficient solid phase peptide synthesis. The fatty acid was conjugated to the N-terminus of the peptide using the same procedure followed to attach protected amino acids to the growing peptide chain for synthesis. The purity (>90%), sequence and molecular weight of USCLs were assessed and provided by GenScript using RP-HPLC and ESI-MS. USCLs were dissolved in sterile water or DMSO at 10 mg/mL, according to manufacturer's indications.

[2] = system: S. aureus 11 (MRSA clinical isolate); assay type: cell-based, Staphylococcus aureus; details: 11 ( clinical isolate, 24 h)
Text: (§1) Bacteria used in this study were Escherichia coli ATCC 25922 and O18K1H7, Staphylococcus aureus ATCC 25923 and ATCC 29213, Pseudomonas aeruginosa ATCC 27853, Staphylococcus epidermidis ATCC 12228, Enterococcus faecalis ATCC 29212, Bacillus subtilis DSM 4181, Listeria monocytogenes DSM 20600, Salmonella typhimurium ATCC 14028, Acinetobacter baumannii ATCC 19606 and 17978, Klebsiella pneumoniae ATCC 13883 and 700603, Stenotrophomonas maltophilia ATCC 13637 and Burkholderia cenocepacia J2315. In addition to reference strains, a clinical isolate of E. faecalis vancomycin-resistant (VREF, strain M), and three clinical isolates of S. aureus methicillin-resistant (MRSA, strains E, G and 11), kindly provided by Dr. Lucilla Dolzani, were used. All MRSA strains are resistant to GEN, IPM, OXA, PEN, CIP and CEF; the S. aureus E strain is also resistant to CLI and ERY. VREF strain is resistant to AMK, ATM, GEN, NET, PEN, TEC, TET, TOB and VAN.
(§2) For the assays, overnight bacterial cultures were diluted 1:30 in fresh Mueller-Hinton Broth (MHB, Difco) and incubated at 37°C with shaking for approximately 2h.
(§3) The antimicrobial activity of USCLs was determined by the Minimum Inhibitory Concentration (MIC) assay, according to the guidelines of CLSI (Clinical & Laboratory Standards Institute) and described in [30, 31]. Briefly, the assays were performed in 96-well microplates in appropriate broth (MHB or SAB). […] For bacteria, a mid-log phase bacterial suspension at 2.5 × 10^5 CFU/mL in MHB was used, and the microplates incubated at 37°C for 24h. The fungal suspension in SAB broth was used at a final concentration of 5 × 10^4 cells/mL. Microplates were then incubated at 30°C for 48h. The MIC value was taken as the lowest concentration of USCLs resulting in the complete inhibition of visible bacterial or fungal growth after appropriate incubation time. Results derive from at least three independent experiments carried out in duplicate.

[3] = system: S. aureus ATCC 25923; assay type: cell-based, Staphylococcus aureus; details: ATCC 25923, 24 h
Text: as §1, §2, §3

[4] = system: S. aureus ATCC 29213; assay type: cell-based, Staphylococcus aureus; details: ATCC 29213, 24 h
Text: as §1, §2, §3

[5] = system: S. aureus E (MRSA clinical isolate); assay type: cell-based, Staphylococcus aureus; details: E ( clinical isolate, 24 h)
Text: as §1, §2, §3

[6] = system: S. aureus G (MRSA clinical isolate); assay type: cell-based, Staphylococcus aureus; details: G ( clinical isolate, 24 h)
Text: as §1, §2, §3

[7] = system: E. coli O18K1H7; assay type: cell-based, Escherichia coli; details: O18K1H7, 24 h
Text: as §1, §2, §3

[8] = system: E. faecalis ATCC 29212; assay type: cell-based, Enterococcus faecalis; details: ATCC 29212, 24 h
Text: as §1, §2, §3

[9] = system: L. monocytogenes DSM 20600; assay type: cell-based, Listeria monocytogenes; details: DSM 20600, 24 h
Text: as §1, §2, §3

[10] = system: K. pneumoniae ATCC 13883; assay type: cell-based, Klebsiella pneumoniae; details: ATCC 13883, 24 h
Text: as §1, §2, §3

[11] = system: K. pneumoniae ATCC 700603; assay type: cell-based, Klebsiella pneumoniae; details: ATCC 700603, 24 h
Text: as §1, §2, §3

[12] = system: A. baumannii ATCC 17978; assay type: cell-based, Acinetobacter baumannii; details: ATCC 17978, 24 h
Text: as §1, §2, §3

[13] = system: A. baumannii ATCC 19606; assay type: cell-based, Acinetobacter baumannii; details: ATCC 19606, 24 h
Text: as §1, §2, §3

[14] = system: S. maltophilia ATCC 13637; assay type: cell-based, Stenotrophomonas maltophilia; details: ATCC 13637, 48 h
Text: as §1, §2
as §3, with “For bacteria, a mid-log phase bacterial suspension at 2.5 × 10^5 CFU/mL in MHB was used, and the microplates incubated at 37°C for 24h.” left out

[15] = system: B. cenocepacia J2315; assay type: cell-based, Burkholderia cenocepacia; details: 48 h
Text: as §1, §2
as §3, with “For bacteria, a mid-log phase bacterial suspension at 2.5 × 10^5 CFU/mL in MHB was used, and the microplates incubated at 37°C for 24h.” left out

[16] = system: C. albicans ATCC 90029; assay type: cell-based, Candida albicans; details: ATCC 90029, 48 h
Protocol: (§4) Fungal strains used were Candida albicans ATCC 90029 and SC5314. Fungi were grown on Sabouraud dextrose (SAB, Difco) agar plates at 30°C for 48h. The initial fungal inoculum was prepared by picking and suspending five colonies in 5 mL of sterile PBS.
as §3

[17] = system: C. albicans SC 5314; assay type: cell-based, Candida albicans; details: SC 5314, 48 h
Protocol: as §4, §3

[18] = system: E. coli ATCC 25922; assay type: cell-based, Escherichia coli; details: ATCC 25922, 24 h
Text: as §1, §2, §3

[19] = system: P. aeruginosa ATCC 27853; assay type: cell-based, Pseudomonas aeruginosa; details: ATCC 27853, 24 h
Text: as §1, §2, §3

[20] = system: E. faecalis M (VREF clinical isolate); assay type: cell-based, Enterococcus faecalis; details: M (VREF clinical isolate, 24 h)
Text: as §1, §2, §3

[21] = system: B. subtilis DSM 4181; assay type: cell-based, Bacillus subtilis; details: DSM 4181, 24 h
Text: as §1, §2, §3

[22] = system: S. typhimurium ATCC 14028; assay type: cell-based, Salmonella typhimurium; details: ATCC 14028, 24 h
Text: as §1, §2, §3

Structure (SMILES) | Retention time [1] | MIC [2] | MIC [3] | MIC [5] | MIC [6] | MIC [7] | MIC [8] | MIC [9] | MIC [10] | MIC [11] | MIC [12] | MIC [14] | MIC [15] | MIC [16] | MIC [17] | MIC [18] | MIC [19] | MIC [20] | MIC [21] | MIC [22] | also measured
CCCCCCCCCCCC(=O)N[C@@H](CCCNC(=N)N)C(=O)N[C@@H](CCCNC(=N)N)C(=O)N[C@@H](Cc1ccccc1)C(=O)N[C@@H](Cc1c[nH]c2ccccc12)C(N)=O [Lau-RRFW, Lau-RRFW-NH2] (Lauroyl-RRFW-NH2) | 22.609 min | 6.25 mg/L (≈ 7.4 µM) | 3.125 mg/L (≈ 3.7 µM) | 3.125 mg/L (≈ 3.7 µM) | 6.25 mg/L (≈ 7.4 µM) | 12.5 mg/L (≈ 14.8 µM) | 6.25 mg/L (≈ 7.4 µM) | 3.125 mg/L (≈ 3.7 µM) | 50 mg/L (≈ 59.2 µM) | 25 mg/L (≈ 29.6 µM) | 12.5 mg/L (≈ 14.8 µM) | 6.25 mg/L (≈ 7.4 µM) | 12.5 mg/L (≈ 14.8 µM) | 3.125 mg/L (≈ 3.7 µM) | 12.5 mg/L (≈ 14.8 µM) |  |  |  |  |  | MIC [4]: 3.125 mg/L (≈ 3.7 µM); MIC [13]: 12.5 mg/L (≈ 14.8 µM)
CCCCCCCCCCCC(=O)N[C@@H](CCCNC(=N)N)C(=O)N[C@@H](CCCNC(=N)N)C(=O)N[C@H](C(=O)N[C@@H](Cc1c[nH]c2ccccc12)C(N)=O)[C@@H](C)CC [Lau-RRIW, Lau-RRIW-NH2] (Lauroyl-RRIW-NH2) | 20.957 min |  | 3.125 mg/L (≈ 3.85 µM) | 3.125 mg/L (≈ 3.85 µM) | 3.125 mg/L (≈ 3.85 µM) | 12.5 mg/L (≈ 15.4 µM) | 6.25 mg/L (≈ 7.71 µM) | 3.125 mg/L (≈ 3.85 µM) |  |  | 25 mg/L (≈ 30.8 µM) | 12.5 mg/L (≈ 15.4 µM) | 6.25 mg/L (≈ 7.71 µM) | 3.125 mg/L (≈ 3.85 µM) | 12.5 mg/L (≈ 15.4 µM) | 12.5 mg/L (≈ 15.4 µM) | 12.5 mg/L (≈ 15.4 µM) | 6.25 mg/L (≈ 7.71 µM) | 3.125 mg/L (≈ 3.85 µM) | 25 mg/L (≈ 30.8 µM) | MIC [4]: 3.125 mg/L (≈ 3.85 µM); MIC [13]: 12.5 mg/L (≈ 15.4 µM)
CCCCCCCCCCCC(=O)N[C@@H](CCCNC(=N)N)C(=O)N[C@@H](CCCNC(=N)N)C(=O)N[C@@H](Cc1ccccc1)C(=O)N[C@@H](Cc1c[nH]c2ccccc12)C(=O)N[C@@H](CCCNC(=N)N)C(=O)N[C@@H](CCCNC(=N)N)C(N)=O [Lp-F^RR, Lau-RRFWRR-NH2] (Lauroyl-RRFWRR-NH2) | 22.087 min | 3.125 mg/L (≈ 2.7 µM) | 3.125 mg/L (≈ 2.7 µM) | 3.125 mg/L (≈ 2.7 µM) | 3.125 mg/L (≈ 2.7 µM) | 25 mg/L (≈ 21.6 µM) | 6.25 mg/L (≈ 5.4 µM) | 1.56 mg/L (≈ 1.35 µM) | 25 mg/L (≈ 21.6 µM) | 25 mg/L (≈ 21.6 µM) | 25 mg/L (≈ 21.6 µM) | 12.5 mg/L (≈ 10.8 µM) | 12.5 mg/L (≈ 10.8 µM) | 1.56 mg/L (≈ 1.35 µM) | 100 mg/L (≈ 86.4 µM) | 12.5 mg/L (≈ 10.8 µM) | 12.5 mg/L (≈ 10.8 µM) | 6.25 to 12.5 mg/L | 1.56 mg/L (≈ 1.35 µM) | 25 mg/L (≈ 21.6 µM) | 
CCCCCCCCCCCC(=O)N[C@@H](CCCNC(=N)N)C(=O)N[C@@H](CCCNC(=N)N)C(=O)N[C@@H](Cc1c[nH]c2ccccc12)C(=O)N[C@@H](CCCNC(=N)N)C(N)=O [Lp-R, Lau-RRWR-NH2] (Lauroyl-RRWR-NH2) | 21.651 min | 3.125 mg/L (≈ 3.66 µM) | 3.125 mg/L (≈ 3.66 µM) | 3.125 mg/L (≈ 3.66 µM) | 3.125 mg/L (≈ 3.66 µM) | 25 mg/L (≈ 29.3 µM) | 6.25 mg/L (≈ 7.32 µM) |  | >100 mg/L | 100 mg/L (≈ 117 µM) |  | 12.5 mg/L (≈ 14.6 µM) | 50 mg/L (≈ 58.5 µM) | 1.56 mg/L (≈ 1.83 µM) | 50 mg/L (≈ 58.5 µM) | 12.5 mg/L (≈ 14.6 µM) | 25 mg/L (≈ 29.3 µM) | 12.5 mg/L (≈ 14.6 µM) | 1.56 mg/L (≈ 1.83 µM) | 100 mg/L (≈ 117 µM) | 
